Patent US12653860B2, “Compositions and methods for editing beta-globin for treatment of hemaglobinopathies” (Vertex Pharmaceuticals Incorporated, priority 2019, dated 2026)

Key:
[1] = tested on: CFTR gene locus in HEK293 T cells; test: TIDE analysis of DSB repair at CFTR gene locus; assay type: cell-based
Experimental: The effect of Nu7441 treatment on HDR was also evaluated at the CFTR gene locus in HEK293 T cells. To do so cells were electroporated with RNP comprising Cas9 and a gRNA targeting the CFTR gene locus (SEQ ID NO: 18; sgRNA target sequence identified by SEQ ID NO: 19). 2×10^5 cells were edited with 1 μM Cas9 and 1.5 μM gRNA. The cells were transfected with a ssODN donor (SEQ ID NO: 42). Cells were edited with 100 μM ssODN. The ssODN contains homology arms spanning both sides of the DSB induced by the Cas9-guide and is designed to include 3 additional base pairs (GCA) into the CFTR gene to aid detection of HDR. Cells were also treated with 5 μM Nu7441. Gene correction was assessed by TIDE analysis. TIDE analysis uses a pair of PCR reactions and standard capillary sequencing runs to identify mutations induced at the site of a DSB (see e.g., Brinkman (2014) Nucleic Acids Res 42:e168). The type of mutation induced at the DSB was indicative of the pathway used to repair the DSB. Formation of an indel comprising either an insertion or a deletion of bases was considered due to NHEJ repair; a deletion of 2-3 base pairs was considered due to MMEJ repair; while an insertion of 3 base pairs was considered due to HDR repair. Shown in FIGS. 4A-4B are mutations introduced at the DSB for cells treated with Nu7441 (FIG. 4B) compared to a DMSO negative control (FIG. 4A). […] This reduction in NHEJ repair in the presence of Nu7441 was evaluated with an additional ssODN donor (SEQ ID NO: 41).

[2] = tested on: HBB gene locus in CD34-expressing LT-HSPCs; test: HDR efficiency at HBB gene with R02 RNP+AAV.307 and DNA-PK inhibitors, NGS; assay type: cell-based, human; details: 1 μg i53 mRNA; R02 RNP+AAV.307
Experimental: Editing was performed as described above. However, the cells were electroporated with AAV.307 administered 1 hour prior to electroporation at a dose of 10,000 MOI. The cells were electroporated with compound 296 at a concentration ranging from 0.005 μM to 10 μM, with compound 984 at a concentration ranging from 0.005 μM to […], or with 1 μg i53 mRNA. Negative control cells were electroporated with RNP+AAV only or RNP only.
Edited cells were evaluated for viability as described above, and for incorporation of gene-edits at 2 days post-electroporation. […] The frequency of INDELs induced at the R02 cut site was also evaluated by NGS analysis.

[3] = Nu7441, either ssODN donor (SEQ ID NO: 41 or 42), FIG. 5

Row | Compound | HDR repair (+3 base pair insertion) ([1]; 5 μM Nu7441, ssODN SEQ ID NO: 42, FIGS. 4A-4B) | indel formation (+1, 0, or −1 base pair) ([1]; 5 μM Nu7441, ssODN SEQ ID NO: 42, vs DMSO negative control, FIGS. 4A-4B) | HDR repair [1, 3] | indel formation due to NHEJ repair [1, 3] | level of HDR repair [2] [%]
1 | O=c1cc(N2CCOCC2)oc2c(-c3cccc4c3sc3ccccc34)cccc12 [Nu7441] | much higher levels of HDR repair | dramatically reduced | increase in HDR repair | decreased levels of indel formation | –
2 | i53: polypeptide inhibitor of 53BP1 (SEQ ID NO: 70), delivered as mRNA (ORF SEQ ID NO: 69) | – | – | – | – | 59
